# Patent US20040037775A1, “Leukocyte internalized peptide-drug conjugates” (priority 2000, published 2004)
# Entries after “also recorded” stand apart in the source; their conditions may differ. Starred links: 1 amine or outer side, 2 acyl side, 3 side chain; linkers in the order of their positions; H or OH if unused. Positions of bridges follow the written chain, without caps; N, C: chain ends. Non-standard residues stand in square brackets, D forms with d. Residues, ends and D or L forms follow the SMILES beside them. *: point of attachment. DAMPA = CN(Cc1cnc2nc(N)nc(N)c2n1)c1ccc(C(=O)*)cc1; γGlu = O=C(O)[C@H](CCC(=O)[*:2])N[*:1]; Pen = CC(C)(S)[C@H](N)C(=O)O
# Legend:
# [1] = tested on: LFA-1 receptor on Molt-3 T-cells; assay: protection against MTX-cIBR toxicity in Molt-3 T-cells (LFA-1 mediated internalization, MTT); format: cell-based, human; details: similar experiment
# Method: As a control, some cells were left untreated. […] As a reference for minimal metabolic activity, 10 mM of the succinate dehydrogenase inhibitor iodoacetamide (IAA) was added to untreated wells. […] The tubes were spun to pellet the cells and the supernatant was carefully removed. The formazan crystals were dissolved in 200 μL of 0.04 N HCl in isopropanol; the tubes were sonicated for 5 min to completely dissolve crystals and then re-centrifuged to pelletize the cell debris. 100 μL aliquots of the supernatant solutions were removed and transferred to a 96-well microtiter plate. The optical density of the solution was measured at 570 nm using a UV plate reader.
# [2] = tested on: Molt-3 T-cells; assay: cells; format: cell-based, human; details: 72 h
# Method: (§1) The cytotoxicity of MTX-peptide conjugates was evaluated in different cell lines, lincluding Molt-3 and L1210 T-cells, and KB epithelial cells. […] After 72 h of growth, the relative numbers of viable cells were determined according to the manufacture's protocols for measuring cytotoxicity using a Dojindo Cytotoxicity Assay Cell counting Kit-8 (CCK-8). To measure the cell viability, 10 μL of CCK-8 was added to each well and the plate was incubated for 4 h. After incubation, the absorbance at 450 nm was measured using a UV plate reader. Cell growth in the presence of different drug concentrations was calculated relative to the value obtained in the absence of the drug. […] Serial dilutions of compounds were prepared in un-supplemented medium, and 110 μL of drug solution was aliquoted in duplicate into 900 μL cell suspensions. Control flasks were treated with 110 μL of un-supplemented medium. Cells were incubated under standard conditions for 48 h, sufficient to allow control cells to divide approximately four times. Growth inhibition was determined by counting the cells on a Z2 model Coulter Counter (Coulter Electronics Ltd, Luton, Beds, UK). The IC50 values were calculated using Graphpad Prism software (Graphpad Software, San Diego, Calif.). KB MTT Assay: KB cells were seeded in Falcons® 96 well plates (Becton-Dickinson Labware Europe, France) at a density of 1,500 cells/well in a volume of 0.18 mL culture medium and incubated under standard culture conditions for 24 h after seeding to allow entry into the exponential phase of cell growth. […] In each assay condition, control cells were treated with 20 μL of un-supplemented medium instead of drug. Cells were incubated for 96 h to allow control cells to divide approximately four times before cell viability was determined by MTT assay.
# [3] = tested on: L1210 mouse leukemia cells; assay: cells; format: cell-based; details: 48 h
# Method: as §1
# [4] = tested on: Molt-3 T-cells; assay: propidium iodide assay of growth and cytotoxicity in Molt-3 T-cells; format: cell-based, human; details: tested 0.1-500 μM
# [5] = tested on: Molt-3 T-cells/Calu-3 lung epithelial monolayers; assay: heterotypic adhesion of Molt-3 T-cells to Calu-3 lung epithelial monolayers; format: cell-based, human; details: for effect on adherence of Molt-3 T-cells to Calu-3 monolayers: IFN-γ-induced Calu-3, PMA-activated Molt-3
# Method: Molt-3, Caco-2 and Calu-3 cell lines were obtained from the American Type Culture Collection (Rockville, Md.). Molt-3 and Caco-2 cells were maintained and grown using known methods. Briefly, the Caco-2 cell-line was grown as monolayers in Dulbecco's modified Eagle's medium (DMEM) with 25 mM glucose containing 10% FBS, 1% nonessential amino acids, 1 mM Na-pyruvate, 1% L-glutamine and […] of penicillin/streptomycin. Cells were grown in 75-cm^2 tissue culture flasks (Falcon) for maintenance purposes and in a 48-well cell culture cluster (Costar) for heterotypic-adhesion experiments. Before confluency was reached, Caco-2 cells were induced with 100 U/mL IFN-γ for 24 h to up-regulate the ICAM-1 expression. Calu-3, a lung epithelial cell line, was maintained in a 1:1 mixture of Ham's F12:DMEM containing 10% FBS and 100 μg/mL penicillin/streptomycin. Upon reaching 90% confluency (approximately 4-5 days), cells were subcultured at a 1:2 split ratio using 0.25% trypsin/0.1% EDTA. Calu-3 cells were induced with 500 U/mL IFN-γ for 48 h to up-regulate the ICAM-1 expression. All cell lines were grown in a 95% humidified/5% CO2 atmosphere at 37° C.
# Heterotypic Adhesion Experiments with LFA-1 derived peptides—Two heterotypic cell adhesion systems were used in this work. The adhesion between Molt-3 T-cells/Calu-3 lung epithelial monolayers was used to assess the inhibitory activities of cLAB.L and cLAB.2L; Molt-3 T-cells/Caco-2 colon epithelial monolayers system was for cLAB.L and its derivatives. Briefly, Calu-3 or Caco-2 cell monolayers were pretreated with peptide solution prior to the adherence of fluorescence-labeled Molt-3 cells. […] Soluble lysates were transferred to 96-well (clear-bottom, black-sided) plates (Costar) for reading in a microplate fluorescence analyzer (Bio-Tek FL600) to give relative fluorescence (FL), i.e., the reading of fluorescence intensity of adherent corrected with the reading of cell monolayers only. Data were presented as the percentage of T-cell adherence calculated as follows: […]
# [6] = tested on: dihydrofolate reductase enzyme (DHFR); assay: DHFR inhibition assay (spectrophotometric NADPH loss, Dixon plots); format: biochemical
# Method: Into a 2.0 mL cuvette, a 1.0 mL solution of 0.11 mM β-NADPH and 33 μL of 2.3 mM DHFA were aliquoted and allowed to equilibrate. […] To begin the assay, 33 μL of DHFR (0.12-0.25 unit/mL with 0.1% BSA) was added to the reaction mixture. The absorbance of the reaction mixture was then recorded continuously for 5 min at 340 nm and the enzyme activity was determined by the rate of NADPH loss. Enzyme activity was determined for three different fixed concentrations of substrate (0.19, 1.9 and 10.0 mM DHFA).
# [7] = tested on: KB epithelial cells; assay: KB MTT assay (96 h); format: cell-based, human
# Method: Human KB epithelial l cells: The human KB epithelial cell line was a gift from Dr Gerrit Jansen (University Free Hospital, Amsterdam, Netherlands) and was developed to overexpress the membrane folate binding protein (mFBP). Cells were cultured in RPMI 1640 medium without folic acid and supplemented with 10% heat inactivated dialyzed FCS (50 mL volume), 0.2 mL of 50 μg/mL gentamicin, 1 mL of 50 μg/mL amphotericin B, and 5 mL of 200 mM L-glutamine. The folate source, 20 nM (R,S)-LV, was added to supply cells with adequate growth conditions.
# The cytotoxicity of MTX-peptide conjugates was evaluated in different cell lines, lincluding Molt-3 and L1210 T-cells, and KB epithelial cells. […] After 72 h of growth, the relative numbers of viable cells were determined according to the manufacture's protocols for measuring cytotoxicity using a Dojindo Cytotoxicity Assay Cell counting Kit-8 (CCK-8). To measure the cell viability, 10 μL of CCK-8 was added to each well and the plate was incubated for 4 h. After incubation, the absorbance at 450 nm was measured using a UV plate reader. Cell growth in the presence of different drug concentrations was calculated relative to the value obtained in the absence of the drug. […] Growth inhibition was determined by counting the cells on a Z2 model Coulter Counter (Coulter Electronics Ltd, Luton, Beds, UK). The IC50 values were calculated using Graphpad Prism software (Graphpad Software, San Diego, Calif.). […] Cells were incubated for 96 h to allow control cells to divide approximately four times before cell viability was determined by MTT assay.
# The number of viable cells after a 96-h incubation was determined by assessing their ability to reduce MTT ([…]). […] The absorbance of the solution in each well was measured at 540 nm on a MCC/340 model Titertak Multiscan® plate reader (Labsystems/Flow Laboratories, Oxfordshire, UK). The results were analyzed using Ascent Research software v.2.1 (Labsystems, UK).
compound,measurement,setting,value
CC(C)C[C@@H]1NC(=O)[C@H](C(C)C)NC(=O)[C@H](CO)NC(=O)CNC(=O)CNC(=O)[C@H](CCCNC(=N)N)NC(=O)[C@@H]2CCCN2C(=O)[C@@H](N)C(C)(C)SSC[C@@H](C(=O)O)NC(=O)CNC(=O)[C@H]([C@@H](C)O)NC(=O)[C@H](C(C)C)NC1=O [cIBR peptide] (H-[Pen]PRGGSVLVTGC-OH; disulfide 1-12),effect on cytotoxicity of MTX-cIBR,[1],reduced the cytotoxicity of MTX-cIBR in a concentration dependent manner
CC(C)[C@H](NC(=O)[C@H](CO)NC(=O)CNC(=O)CNC(=O)[C@H](CCCNC(=N)N)NC(=O)[C@@H]1CCCN1C(=O)CC[C@H](NC(=O)c1ccc(N(C)Cc2cnc3nc(N)nc(N)c3n2)cc1)C(=O)O)C(N)=O [MTX-PRGGSV] ({DAMPA-γGlu}-PRGGSV-NH2),IC50,[2],5.13 ± 0.6 µM
same,IC50,[3],1.6 ± 0.4 µM
"cyclol,12-PenITDGEATDSGC [cLAB.L]",concentration at which total growth inhibition emerged in Molt-3 cells,[4],100 µM
same,effect on adherence of Molt-3 T-cells to Calu-3 monolayers,[5],significantly reduces
same,inhibition of heterotypic cell adhesion,"[5]; IFN-γ-induced Calu-3 monolayers, BCECF labeled Molt-3 cells",about 40%
"Xaa-Gly Val Asp Val Asp Glp Asp Gly Glu Thr-Cys [cLAB.2L, cyclic domain V peptide of LFA-1]",effect on adherence of Molt-3 T-cells to Calu-3 monolayers,[5],did not interfere; also recorded: no significant effect
CC[C@H](C)[C@H](NC(=O)[C@@H](NC(=O)CC[C@H](NC(=O)c1ccc(N(C)Cc2cnc3nc(N)nc(N)c3n2)cc1)C(=O)O)C(C)C)C(=O)N[C@@H](CC(C)C)C(=O)N1CCC[C@H]1C(=O)N[C@@H](CCCNC(=N)N)C(=O)NCC(N)=O [MTX-VILPRG] ({DAMPA-γGlu}-VILPRG-NH2),IC50,[2],9.12 ± 0.2 µM
same,IC50,[3],0.7 ± 0.3 µM
CC[C@H](C)[C@@H]1NC(=O)[C@H](C(C)C)NC(=O)[C@H](CCCCN)NC(=O)[C@H](CO)NC(=O)[C@@H]2CCCN2C(=O)[C@H](CO)NC(=O)[C@H](C(C)C)NC(=O)[C@H](CO)NC(=O)[C@H]([C@@H](C)O)NC(=O)[C@H](CCC(N)=O)NC(=O)[C@@H](NC(=O)CC[C@H](NC(=O)c2ccc(N(C)Cc3cnc4nc(N)nc(N)c4n3)cc2)C(=O)O)C(C)(C)SSC[C@@H](C(=O)O)NC1=O [MTX-cIBL] ({DAMPA-γGlu}-[Pen]QTSVSPSKVIC-OH; disulfide 1-12),Km relative to that of MTX,[6],approximately 4 fold
same,Ymax,[6]; from Dixon plots,4.26 ± 0.07 × 10^−4
same,IC50,[2],2.68 ± 0.2 µM
same,IC50,[7],> 10 µM
same,IC50,[3],9.14 ± 1 µM
"cyclol,12-PenDLSTSLDDLRC [cLBE.L]",concentration at which total growth inhibition emerged in Molt-3 cells,[4],100 µM
